# In patent US12077531B2, “Imidazopyridinone compound” (KISSEI PHARMACEUTICAL CO., LTD., priority 2018, dated 2024):
# Target: human PHD2184-418 (Homo sapiens (Human), UniProt Q9GZT9)
# Assay: PHD2 inhibitory test (fluorescence polarization, binding between PHD2 and HIF-1α)
# Details: human PHD2184-418, FITC-labeled HIF-1α556-574, 2 μM 2-oxoglutarate, 37° C. 60 minutes
# Method: Test Example 1 PHD2 Inhibitory Test
# (1) Expression and Preparation of Human PHD2184-418
# Human PHD2184-418 containing amino acid residues 184 to 418 of the protein represented by CAC42509 (GenBank accession ID) was expressed and prepared by the following method.
# An expression construct of human PHD2184-418 containing N-terminal histidine tag was introduced into pET-30a (+) vector, and the sequence was confirmed. This vector was introduced into BL21 (DE3) strain and cultured at 37° C. in LB medium containing antibiotics. After culturing, a cell lysis solution was added to the cells, and then the cells were disrupted by sonication. The disrupted suspension was centrifuged and the supernatant was purified by Ni column to give human PHD2184-418.
# Human HIF-1α556-574 (FITC-labeled HIF-1α556-574), containing N-terminal FITC-Ahx, containing amino acid residues 556 to 574 (partial peptide) of HIF-1α was used as a substrate. Using FITC-labeled HIF-1α556-574, the competitive inhibition between 2-oxoglutarate and test compounds (PHD inhibitor) was evaluated based on the change in fluorescence polarization by the following method.
# An enzyme (human PHD2184-418) and the substrate were diluted with an assay buffer (pH 7.4) containing 10 mM HEPES, 150 mM NaCl, 10 μM MnCl2-4H2O, 2 μM 2-oxoglutarate and 0.05% Tween-20. Test compounds were diluted with DMSO. Test compounds and human PHD2184-418 was added to the 384-well plate (Corning, black, opaque bottom) in advance. The reaction was started by the addition of FITC-labeled HIF-1α556-574. After incubating at 37° C. for 60 minutes, fluorescence polarization (excitation wavelength: 470 nm, fluorescence wavelength: 530 nm) was measured by PHERAstar FSX (BMG Labtech). Fluorescence polarization of each well was measured, and human PHD2 binding inhibitory activity of test compounds was calculated based on the value of test compound-free group.
# Sequence of human PHD2184-418 (Q9GZT9 184-418): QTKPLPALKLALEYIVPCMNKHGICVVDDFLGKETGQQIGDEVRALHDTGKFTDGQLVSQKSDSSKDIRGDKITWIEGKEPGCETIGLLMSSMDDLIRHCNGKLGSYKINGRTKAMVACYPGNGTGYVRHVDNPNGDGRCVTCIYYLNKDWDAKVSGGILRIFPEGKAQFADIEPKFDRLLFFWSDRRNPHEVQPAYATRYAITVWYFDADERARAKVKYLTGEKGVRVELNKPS
row,SMILES,IC50 [nM]
1,"Cn1c(C(=O)O)cnc1CN1CCC(C)(n2c(=O)n(-c3ccc(-c4ccccc4)cc3)c3cccnc32)CC1 [Example 23, 2-((4-(1-([1,1′-Biphenyl]-4-yl)-2-oxo-1,2-dihydro-3H-imidazo[4,5-b]pyridin-3-yl)-4-methylpiperidin-1-yl)methyl)-1-methyl-1H-imidazole-5-carboxylic acid]",5500
2,"COc1cnc2c(c1)n(-c1ccc(-c3ccc(C(=O)O)cc3)cc1)c(=O)n2[C@H]1CCN(Cc2ncc(C(=O)O)n2C)C1 [Example 24, (S)-2-((3-(1-(4′-Carboxy-[1,1′-biphenyl]-4-yl)-6-methoxy-2-oxo-1,2-dihydro-3H-imidazo[4,5-b]pyridin-3-yl)pyrrolidin-1-yl)methyl)-1-methyl-1H-imidazole-5-carboxylic acid]",110
3,"Cn1c(C(=O)O)cnc1CN1C[C@@H](F)[C@H](n2c(=O)n(-c3ccc(-c4ccc(C(=O)O)cc4)cc3)c3cccnc32)C1 [Example 25, 2-(((3R,4R)-3-(1-(4′-Carboxy-[1,1′-biphenyl]-4-yl)-2-oxo-1,2-dihydro-3H-imidazo[4,5-b]pyridin-3-yl)-4-fluoropyrrolidin-1-yl)methyl)-1-methyl-1H-imidazole-5-carboxylic acid]",110
4,"Cn1c(C(=O)O)cnc1CN1CC[C@H](n2c(=O)n(-c3ccc(-c4ccc(C(=O)O)cc4)cc3)c3cc(C(F)(F)F)cnc32)C1 [Example 26, (S)-2-((3-(1-(4′-Carboxy-[1,1′-biphenyl]-4-yl)-2-oxo-6-(trifluoromethyl)-1,2-dihydro-3H-imidazo[4,5-b]pyridin-3-yl)pyrrolidin-1-yl)methyl)-1-methyl-1H-imidazole-5-carboxylic acid]",130
5,"Cc1cc(-c2ccccc2)ccc1-n1c(=O)n([C@H]2CCN(Cc3nccn3C)C2)c2ncccc21 [Example 28, (S)-3-(1-((1-Methyl-1H-imidazol-2-yl)methyl)pyrrolidin-3-yl)-1-(3-methyl-[1,1′-biphenyl]-4-yl)-1,3-dihydro-2H-imidazo[4,5-b]pyridin-2-one]",28200
6,"Cc1cc(-c2ccccc2)ccc1-n1c(=O)n([C@@H]2CCN(Cc3nccn3C)C2)c2ncccc21 [Example 30, (R)-3-(1-((1-Methyl-1H-imidazol-2-yl)methyl)pyrrolidin-3-yl)-1-(3-methyl-[1,1′-biphenyl]-4-yl)-1,3-dihydro-2H-imidazo[4,5-b]pyridin-2-one]",3480
7,"Cc1cccnc1CN1CC[C@H](n2c(=O)n(-c3ccc(-c4ccc(F)cc4)cc3)c3cccnc32)C1 [Example 31, (S)-1-(4′-Fluoro-[1,1′-biphenyl]-4-yl)-3-(1-((3-methylpyridin-2-yl)methyl)pyrrolidin-3-yl)-1,3-dihydro-2H-imidazo[4,5-b]pyridin-2-one]",12400

# Further lines, results first:
row,IC50 [nM],SMILES
1,110,"Cc1cnc2c(c1)n(-c1ccc(-c3ccc(C(=O)O)cc3)cc1)c(=O)n2[C@H]1CCN(Cc2ncc(C(=O)O)n2C)C1 [Example 27, (S)-2-((3-(1-(4′-Carboxy-[1,1′-biphenyl]-4-yl)-6-methyl-2-oxo-1,2-dihydro-3H-imidazo[4,5-b]pyridin-3-yl)pyrrolidin-1-yl)methyl)-1-methyl-1H-imidazole-5-carboxylic acid]"
2,2090,"Cc1ccccc1-c1ccc(-n2c(=O)n([C@H]3CCN(Cc4nccn4C)C3)c3ncccc32)cc1 [Example 29, (S)-3-(1-((1-Methyl-1H-imidazol-2-yl)methyl)pyrrolidin-3-yl)-1-(2′-methyl-[1,1′-biphenyl]-4-yl)-1,3-dihydro-2H-imidazo[4,5-b]pyridin-2-one]"

# Same assay, conditions: read-out: inhibition rate at the compound concentration of 100 μM (numerals with *); compound concentration 100 μM
row,inhibition at 100 µM [%],SMILES
1,41,"Cc1cccnc1CN1CC[C@H](n2c(=O)n(-c3ccc(-c4ccccc4C(F)(F)F)cc3)c3cccnc32)C1 [Example 33, (S)-3-(1-((3-Methylpyridin-2-yl)methyl)pyrrolidin-3-yl)-1-(2′-(trifluoromethyl)-[1,1′-biphenyl]-4-yl)-1,3-dihydro-2H-imidazo[4,5-b]pyridin-2-one]"
